“And” between values parts separate entries of the source, which are not always exact repeats. Identical values can stand only once. “Also recorded” adds a separate entry of the source. Like-named read-outs stand apart in the source and are kept apart here.
Legend:
[1] = target: T1, Electrophorus electricus AChE (EeAChE) (Electrophorus electricus, UniProt O42275); experiment: biochemical; settings: for inhibition at 10 µM: read-out: % inhibition of EeAChE at 10 μM (footnote c); for IC50: Ellman method, pH 8.0
T1 construct: purchased Merck
Method: (§1) The inhibitory activities of the tested compounds against EeAChE and eqBuChE were determined using the spectrophotometric procedure based on Ellman’s method. […] After a pre-incubation step, acetylthiocholine iodide (105 µL, final concentration 0.35 mM) or butyrylthiocholine iodide (150 µL, final concentration 0.5 mM) was added, and the mixture was incubated for an additional 15 min.

Aβ1–42 = target: T2, Aβ1–42 (Homo sapiens, UniProt P05067); experiment: Aβ1–42 self-aggregation, thioflavin T-based fluorometric assay; type: biochemical; settings: ThT assay; for inhibition at 50 µM (stock): [Aβ] = [Inhibitor] = 50 μM (Figure 1 legend)
T2 construct: purchased Merck
Method: Curcumin was used as a positive control.
A ThT fluorescence assay evaluated the effect of the test compounds on Aβ1−42 fibril formation. Aβ stock solutions were diluted to 50 μM in ultrapure water before use. […] Control samples were prepared by replacing Aβ with 50 mM phosphate buffer (pH 7.4), with or without the inhibitors. After incubation, samples were diluted to 360 μL with 50 mM glycine-NaOH buffer (pH 8.0) containing thioflavin T (5 μM).

[2] = ORAC-FL (Oxygen Radical Absorbance Capacity by Fluorescence) assay; settings: Trolox equivalents
Method: Briefly, fluorescein and the test compound were pre-incubated in a black 96-well microplate (Nunc) at 37 °C for 15 min. Then, 2,2′-azobis(amidinopropane) dihydrochloride was rapidly added using the integrated injector of a Varioskan Flash plate reader (Thermo Scientific). […] Each experiment was conducted in triplicate, with a minimum of three independent assays performed per compound.

equine BuChE (eqBuChE) = target: T3, equine BuChE (eqBuChE) (Equus caballus, UniProt P81908); experiment: biochemical; type: biochemical; settings: for inhibition at 10 µM: read-out: % inhibition of eqBuChE at 10 μM (footnote c); for IC50: pH 8.0
T3 construct: purchased Merck
Method: as §1

[3] = reported as a standard antioxidant; cited from earlier work

T3 sequence (P81908 whole entry): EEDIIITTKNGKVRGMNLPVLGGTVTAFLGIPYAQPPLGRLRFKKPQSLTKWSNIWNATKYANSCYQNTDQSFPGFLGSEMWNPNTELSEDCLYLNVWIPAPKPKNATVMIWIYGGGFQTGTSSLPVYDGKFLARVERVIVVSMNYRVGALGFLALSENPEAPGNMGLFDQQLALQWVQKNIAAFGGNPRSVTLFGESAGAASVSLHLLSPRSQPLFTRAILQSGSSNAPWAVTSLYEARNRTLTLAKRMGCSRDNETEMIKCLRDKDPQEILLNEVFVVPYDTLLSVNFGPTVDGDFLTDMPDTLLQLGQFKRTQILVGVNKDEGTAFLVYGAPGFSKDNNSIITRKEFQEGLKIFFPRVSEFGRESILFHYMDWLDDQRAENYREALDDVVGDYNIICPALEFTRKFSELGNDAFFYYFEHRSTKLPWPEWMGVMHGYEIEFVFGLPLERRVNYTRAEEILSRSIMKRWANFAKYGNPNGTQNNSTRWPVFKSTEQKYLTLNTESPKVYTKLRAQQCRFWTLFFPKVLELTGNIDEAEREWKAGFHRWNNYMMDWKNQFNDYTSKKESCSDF
T1 sequence (O42275 24-633): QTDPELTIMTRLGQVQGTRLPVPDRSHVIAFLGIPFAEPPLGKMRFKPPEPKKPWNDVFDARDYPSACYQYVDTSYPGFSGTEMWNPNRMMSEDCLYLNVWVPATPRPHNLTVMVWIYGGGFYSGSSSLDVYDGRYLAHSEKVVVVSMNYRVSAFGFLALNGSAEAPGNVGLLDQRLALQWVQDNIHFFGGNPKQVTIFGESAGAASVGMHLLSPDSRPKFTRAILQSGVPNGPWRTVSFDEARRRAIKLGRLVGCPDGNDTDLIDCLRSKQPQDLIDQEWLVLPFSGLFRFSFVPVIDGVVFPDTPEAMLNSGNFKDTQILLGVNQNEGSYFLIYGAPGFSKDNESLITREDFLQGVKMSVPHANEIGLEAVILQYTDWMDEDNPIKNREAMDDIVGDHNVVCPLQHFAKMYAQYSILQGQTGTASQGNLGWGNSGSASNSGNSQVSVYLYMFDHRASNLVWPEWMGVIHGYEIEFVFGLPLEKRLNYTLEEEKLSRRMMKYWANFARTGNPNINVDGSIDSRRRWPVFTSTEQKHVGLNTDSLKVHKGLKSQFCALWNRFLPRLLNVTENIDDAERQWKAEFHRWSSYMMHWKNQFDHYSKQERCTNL
T2 sequence (P05067 672-713): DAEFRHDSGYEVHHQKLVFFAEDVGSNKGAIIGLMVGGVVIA

Question: Which results are given for `Cc1cccc(Nc2ncnc3ccccc23)c1C` [3l, 4-(2,3-Dimethylphenyl)aminoquinazoline]?
Answer: inhibition at 10 µM [1]: < 50%; inhibition at 50 µM (stock) (Aβ1–42): 8.74%; ORAC [2]: 0.32 ± 0.05 TE; inhibition at 10 µM (equine BuChE (eqBuChE)): < 50%

Question: For `CCc1nc(Nc2ccc(C)cc2)c2ccccc2n1` [3k, 2-Ethyl-4-(p-tolyl)aminoquinazoline], which inhibition at 10 µM [1] is on record?
Answer: < 50%

Question: And the inhibition at 50 µM (stock) (Aβ1–42)?
Answer: 9.4%

Question: What about the ORAC [2] of the same compound?
Answer: 0.58 ± 0.04 TE

Question: What about the inhibition at 10 µM (equine BuChE (eqBuChE)) of the same compound?
Answer: < 50%

Question: For `COc1cc(Nc2nc(C)nc3ccccc23)cc(OC)c1` [3e, 2-methyl-4-(3,5-Dimethoxyphenyl)aminoquinazoline], which IC50 [1] is on record?
Answer: 6.04 ± 1.05 µM

Question: What about the “Inhibition of Aβ1–42 self-aggregation (in words)” value (Aβ1–42) of the same compound?
Answer: did not display measurable activity

Question: What about the ORAC [2] of the same compound?
Answer: 1.81 ± 0.19 TE

Question: What about the IC50 (equine BuChE (eqBuChE); Ellman method) of the same compound?
Answer: 9.43 ± 1.13 µM

Question: What does the source list for `CCc1nc(Nc2cc(OC)cc(OC)c2)c2ccccc2n1` [3f, 2-ethyl-4-(3,5-Dimethoxyphenyl)aminoquinazoline]?
Answer: inhibition at 10 µM [1]: < 50%; inhibition at 50 µM (stock) (Aβ1–42): 13.6%; ORAC [2]: 1.29 ± 0.08 TE; IC50 (equine BuChE (eqBuChE); Ellman method): 8.5 ± 1.16 µM

Question: What does the source list for `CCc1nc(Nc2ccc(OC)c(OC)c2)c2ccccc2n1` [3h, 2-ethyl-4-(3,4-Dimethoxyphenyl)aminoquinazoline]?
Answer: IC50 [1]: 6.67 µM and 6.61 µM; inhibition at 50 µM (stock) (Aβ1–42): 36.7%; ORAC [2]: 5.73 TE and 5.73 ± 0.39 TE; eqBuChE inhibition (in words) (equine BuChE (eqBuChE); Ellman method): inactive; inhibition at 10 µM (equine BuChE (eqBuChE)): < 50%

Question: Which inhibition at 50 µM (stock) (Aβ1–42) does the source give for `COc1cc(/C=C/C(=O)CC(=O)/C=C/c2ccc(O)c(OC)c2)ccc1O` [Curcumin, reference compound] here?
Answer: 58%

Question: Which results are given for `Cc1nc(Nc2ccc([N+](=O)[O-])cc2)c2ccccc2n1` [3o, 2-Methyl-4-(4-nitrophenyl)aminoquinazoline]?
Answer: inhibition at 10 µM [1]: < 50%; inhibition at 50 µM (stock) (Aβ1–42): 13.7%; ORAC [2]: 0.36 ± 0.01 TE; inhibition at 10 µM (equine BuChE (eqBuChE)): < 50%

Question: Which inhibition at 10 µM [1] does the source give for `CCc1nc(Nc2ccc(Cl)cc2)c2ccccc2n1` [3q, 2-ethyl-4-(4-Chlorophenyl)aminoquinazoline] here?
Answer: < 50%

Question: And the inhibition at 50 µM (stock) (Aβ1–42)?
Answer: 1.45%

Question: What about the IC50 (equine BuChE (eqBuChE); Ellman method) of the same compound?
Answer: 8.64 ± 0.3 µM

Question: Which results are given for `c1ccc(Nc2ncnc3ccccc23)cc1` [3a, 4-anilinoquinazoline]?
Answer: inhibition at 10 µM [1]: < 50%; inhibition at 50 µM (stock) (Aβ1–42): 10.3%; inhibition at 10 µM (equine BuChE (eqBuChE)): < 50%

Question: Which inhibition at 10 µM [1] does the source give for `Cc1nc(Nc2cccc(C)c2C)c2ccccc2n1` [3m, 2-methyl-4-(2,3-Dimethylphenyl)aminoquinazoline] here?
Answer: < 50%

Question: What about the inhibition at 50 µM (stock) (Aβ1–42) of the same compound?
Answer: 15.8%

Question: What about the inhibition at 10 µM (equine BuChE (eqBuChE)) of the same compound?
Answer: < 50%

Question: Which inhibition at 10 µM [1] does the source give for `Clc1ccc(Nc2ncnc3ccccc23)cc1` [3p, 4-(4-Chlorophenyl)aminoquinazoline] here?
Answer: < 50%

Question: And the “Inhibition of Aβ1–42 self-aggregation (in words)” value (Aβ1–42)?
Answer: inactive; also recorded: did not display measurable activity

Question: What about the ORAC [2] of the same compound?
Answer: 0.40 ± 0.07 TE

Question: And the inhibition at 10 µM (equine BuChE (eqBuChE))?
Answer: < 50%

Question: Which ORAC [3] does the source give for `COc1cc(/C=C/C(=O)O)ccc1O` [ferulic acid] here?
Answer: 3.7 TE

Question: Which results are given for `COc1ccc(Nc2ncnc3ccccc23)cc1OC` [3g, 4-(3,4-Dimethoxyphenyl)aminoquinazoline]?
Answer: inhibition at 10 µM [1]: < 50%; inhibition at 50 µM (stock) (Aβ1–42): 14.7%; ORAC [2]: 5.46 TE and 5.46 ± 0.11 TE; inhibition at 10 µM (equine BuChE (eqBuChE)): < 50%

Question: With `O=[N+]([O-])c1ccc(Nc2ncnc3ccccc23)cc1` [3n, 4-(4-Nitrophenyl)aminoquinazoline] as the compound, how does the inhibition at 10 µM [1] read?
Answer: < 50%

Question: And the inhibition at 50 µM (stock) (Aβ1–42)?
Answer: 6.57%

Question: And the inhibition at 10 µM (equine BuChE (eqBuChE))?
Answer: < 50%

Question: Which inhibition at 10 µM [1] does the source give for `COc1cc(Nc2ncnc3ccccc23)cc(OC)c1` [3d, 4-(3,5-Dimethoxyphenyl)aminoquinazoline] here?
Answer: < 50%

Question: What about the “Inhibition of Aβ1–42 self-aggregation (in words)” value (Aβ1–42) of the same compound?
Answer: did not display measurable activity

Question: And the inhibition at 10 µM (equine BuChE (eqBuChE))?
Answer: < 50%

Question: Which results are given for `Cc1ccc(Nc2ncnc3ccccc23)cc1` [3i, 4-(p-Tolyl)aminoquinazoline]?
Answer: inhibition at 10 µM [1]: < 50%; inhibition at 50 µM (stock) (Aβ1–42): 7.1%; inhibition at 10 µM (equine BuChE (eqBuChE)): < 50%

Question: For `CCc1nc(Nc2ccccc2)c2ccccc2n1` [3c, 2-Ethyl-4-anilinoquinazoline], which inhibition at 10 µM [1] is on record?
Answer: < 50%

Question: And the IC50 (equine BuChE (eqBuChE); Ellman method)?
Answer: 5.34 ± 0.15 µM

Question: For `Cc1ccc(Nc2nc(C)nc3ccccc23)cc1` [3j, 2-Methyl-4-(p-tolyl)aminoquinazoline], which inhibition at 10 µM [1] is on record?
Answer: < 50%

Question: And the inhibition at 50 µM (stock) (Aβ1–42)?
Answer: 21.2%

Question: What about the ORAC [2] of the same compound?
Answer: 0.75 ± 0.08 TE

Question: And the inhibition at 10 µM (equine BuChE (eqBuChE))?
Answer: < 50%

Question: Which results are given for `Cc1nc(Nc2ccccc2)c2ccccc2n1` [3b, 2-Methyl-4-anilinoquinazoline]?
Answer: inhibition at 10 µM [1]: < 50%; Inhibition of Aβ1–42 self-aggregation (in words) (Aβ1–42): did not display measurable activity; ORAC [2]: 0.51 ± 0.02 TE; inhibition at 10 µM (equine BuChE (eqBuChE)): < 50%
